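Test compounds were applied to cells in 96-well plates for 48 hours at 5 doses. At the TGI there is no net growth.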

Some test systems named below: RXF 393 renal; HCC-2998 colon; CCRF-CEM leukemia; OVCAR-5 ovarian; HL-60(TB) leukemia; SF-295 CNS; SF-539 CNS; OVCAR-8 ovarian; NCI-H23 lung; OVCAR-4 ovarian; LOX IMVI melanoma; SNB-75 CNS; SR leukemia; IGROV1 ovarian; M14 melanoma; SW-620 colon; NCI-H226 lung; U251 CNS.
Common to all, as to test: NCI anticancer screen, dose series, 48 h

In the case of `COC(=O)n1c(C)c(C=O)c2ccc(OC)cc21`, the TGI with RXF 393 renal was over 100 µM; in the test on HCC-2998 colon, 55.8 µM; with CCRF-CEM leukemia it was over 100 µM; in the test with OVCAR-5 ovarian, over 100 µM; with HL-60(TB) leukemia, over 100 µM; in the test on SF-295 CNS, 69.6 µM. The TGI with SF-539 CNS is 55.2 µM; in the test with OVCAR-8 ovarian, over 100 µM; in the test on NCI-H23 lung, 89.7 µM; in the test with OVCAR-4 ovarian, over 100 µM; in the test with LOX IMVI melanoma, 84.5 µM; in the test on SNB-75 CNS it was over 100 µM. In addition, the TGI with SR leukemia, in the test on IGROV1 ovarian and with M14 melanoma was over 100 µM throughout.
For `C[C@@]1(Cc2ccccc2)C(=O)N2[C@@H](CO)C(c3ccccc3)O[C@]2(C)c2ccccc21` (some centres not stated), the TGI in the test on SW-620 colon, in the test with RXF 393 renal, in the test with CCRF-CEM leukemia, with OVCAR-5 ovarian, with HL-60(TB) leukemia and with SF-295 CNS was over 100 µM in each case. The TGI with SF-539 CNS, in the test on NCI-H226 lung, in the test on OVCAR-8 ovarian, in the test on NCI-H23 lung, in the test with OVCAR-4 ovarian and in the test on LOX IMVI melanoma was over 100 µM in each case. The TGI with SNB-75 CNS, in the test with U251 CNS, in the test with SR leukemia, in the test with IGROV1 ovarian and in the test on M14 melanoma was over 100 µM throughout.
Regarding `CCN(CC)CCC1(C2CCCCC2)CCC(=O)NC1=O` (configuration not stated), the TGI with SW-620 colon, with RXF 393 renal, in the test with HCC-2998 colon, in the test on CCRF-CEM leukemia, in the test on OVCAR-5 ovarian and in the test on SF-295 CNS was over 100 µM throughout. The TGI in the test with SF-539 CNS, with NCI-H226 lung, in the test on OVCAR-8 ovarian, with NCI-H23 lung, in the test with OVCAR-4 ovarian and in the test on LOX IMVI melanoma was over 100 µM in each case. Moreover, the TGI in the test on SNB-75 CNS, with U251 CNS, in the test on IGROV1 ovarian and with M14 melanoma was over 100 µM in each case.
Regarding `COc1ccccc1-n1c(N)c2c(C)c(-c3ccccc3)[nH]c2nc1=S`, the TGI with SW-620 colon, in the test on HCC-2998 colon, with CCRF-CEM leukemia, in the test on OVCAR-5 ovarian, in the test on HL-60(TB) leukemia and with SF-539 CNS was over 100 µM throughout. Moreover, the TGI in the test on NCI-H226 lung, in the test with OVCAR-8 ovarian, with NCI-H23 lung, in the test with OVCAR-4 ovarian, in the test with LOX IMVI melanoma and with SNB-75 CNS was over 100 µM throughout. The TGI in the test with U251 CNS, in the test on SR leukemia and in the test with M14 melanoma was over 100 µM in each case.
With `CCOc1ccc(/C=C(\Cl)c2ccc(OC)cc2)cc1`, the TGI in the test with SW-620 colon, in the test on RXF 393 renal, with HCC-2998 colon, in the test on CCRF-CEM leukemia, with HL-60(TB) leukemia and in the test on SF-295 CNS was over 100 µM throughout. Moreover, the TGI with SF-539 CNS, in the test on NCI-H226 lung, in the test with OVCAR-8 ovarian, in the test on NCI-H23 lung, with OVCAR-4 ovarian and with SNB-75 CNS was over 100 µM throughout. Moreover, the TGI with U251 CNS, with SR leukemia, with IGROV1 ovarian and in the test on M14 melanoma was over 100 µM each time.
Regarding `CCOC(=O)C(/C(=N\NC(=O)OC)C(=O)Nc1cc(OC)ccc1OC)c1cnc2ccccc2n1` (configuration not stated), the TGI in the test with SW-620 colon, in the test on RXF 393 renal, in the test with HCC-2998 colon, in the test on CCRF-CEM leukemia, in the test with HL-60(TB) leukemia and in the test on SF-295 CNS was over 100 µM throughout. For the same molecule, the TGI in the test with SF-539 CNS, with NCI-H226 lung, in the test on OVCAR-8 ovarian, with NCI-H23 lung, in the test on OVCAR-4 ovarian and with LOX IMVI melanoma was over 100 µM in each case. For the same molecule, the TGI in the test on SNB-75 CNS, in the test on U251 CNS, in the test with SR leukemia, in the test with IGROV1 ovarian and in the test with M14 melanoma was over 100 µM in each case.
As to `O=C(N/N=C(/c1nc2ccc([N+](=O)[O-])cc2[nH]c1=O)C(O)c1ccc([N+](=O)[O-])cc1)c1ccncc1` (configuration not stated), the TGI with SW-620 colon, with HCC-2998 colon, in the test on CCRF-CEM leukemia, in the test on OVCAR-5 ovarian, in the test with HL-60(TB) leukemia and with SF-295 CNS was over 100 µM in each case. Further, the TGI with SF-539 CNS, in the test with NCI-H226 lung, with OVCAR-8 ovarian, in the test on NCI-H23 lung, in the test on OVCAR-4 ovarian and with LOX IMVI melanoma was over 100 µM throughout. Moreover, the TGI in the test with SNB-75 CNS, in the test on U251 CNS, with SR leukemia, with IGROV1 ovarian and with M14 melanoma was over 100 µM in each case.
For the molecule `Cc1cc(S(=O)(=O)NC2=NCCN2Cc2ccccc2)c(S)cc1Cl`, the TGI in the test on SW-620 colon, in the test on HCC-2998 colon, in the test on CCRF-CEM leukemia, with OVCAR-5 ovarian, with HL-60(TB) leukemia and in the test on SF-295 CNS was over 100 µM in each case. For the same molecule, the TGI in the test on SF-539 CNS, in the test on NCI-H226 lung, in the test on OVCAR-8 ovarian, with NCI-H23 lung, in the test on OVCAR-4 ovarian and in the test with LOX IMVI melanoma was over 100 µM each time. Moreover, the TGI in the test with SNB-75 CNS, in the test on U251 CNS, in the test on IGROV1 ovarian and in the test on M14 melanoma was over 100 µM each time.
As for `CCOC(=O)c1cnc2c(ccc3[nH]cccc32)c1=O`, the TGI in the test on SW-620 colon, with RXF 393 renal, with HCC-2998 colon, with CCRF-CEM leukemia, in the test on OVCAR-5 ovarian and with HL-60(TB) leukemia was over 100 µM in each case. Further, the TGI in the test on SF-539 CNS, in the test with OVCAR-8 ovarian, in the test with NCI-H23 lung, in the test with OVCAR-4 ovarian, with LOX IMVI melanoma and in the test with SNB-75 CNS was over 100 µM throughout. For the same molecule, the TGI with U251 CNS, in the test with SR leukemia, in the test with IGROV1 ovarian and in the test on M14 melanoma was over 100 µM in each case.
As for `O=C(O)C1CCCCN1C(=O)Cc1c[nH]c2ccccc12` (configuration not stated), the TGI in the test with SW-620 colon, in the test on RXF 393 renal, in the test on HCC-2998 colon, in the test with CCRF-CEM leukemia, in the test on OVCAR-5 ovarian and in the test with HL-60(TB) leukemia was over 100 µM each time. Also, the TGI with SF-295 CNS, in the test on SF-539 CNS, in the test on NCI-H226 lung, with OVCAR-8 ovarian, with NCI-H23 lung and in the test on OVCAR-4 ovarian was over 100 µM each time. For the same molecule, the TGI in the test with LOX IMVI melanoma, in the test with SNB-75 CNS, in the test on U251 CNS, in the test with IGROV1 ovarian and with M14 melanoma was over 100 µM each time.
`Clc1ccc(CCc2ccncn2)c(Cl)c1`: the TGI is over 100 µM in the test on SW-620 colon; 82.4 µM in the test on RXF 393 renal; over 100 µM with HCC-2998 colon; over 100 µM in the test with OVCAR-5 ovarian; over 100 µM in the test on HL-60(TB) leukemia; over 100 µM in the test with SF-295 CNS. For the same molecule, the TGI with SF-539 CNS, in the test on NCI-H226 lung, with OVCAR-8 ovarian, with NCI-H23 lung, with OVCAR-4 ovarian and in the test on LOX IMVI melanoma was over 100 µM each time. Further, the TGI with SNB-75 CNS, with U251 CNS, with IGROV1 ovarian and with M14 melanoma was over 100 µM in each case.
For the molecule `CCCCNC(=NCc1ccccc1)NC#N`, the TGI in the test with SW-620 colon, in the test with HCC-2998 colon, in the test on CCRF-CEM leukemia, with OVCAR-5 ovarian, in the test on HL-60(TB) leukemia and in the test with SF-295 CNS was over 100 µM throughout. Also, the TGI with SF-539 CNS, in the test on NCI-H226 lung, in the test on OVCAR-8 ovarian, with NCI-H23 lung, in the test with OVCAR-4 ovarian and with LOX IMVI melanoma was over 100 µM each time. The TGI in the test on SNB-75 CNS, in the test on U251 CNS, in the test on SR leukemia, with IGROV1 ovarian and with M14 melanoma was over 100 µM each time.
As to `CN(C)/C=N\c1nncc2[nH]cnc12`, the TGI in the test with SW-620 colon, with HCC-2998 colon, in the test on CCRF-CEM leukemia, in the test on OVCAR-5 ovarian, with SF-295 CNS and with SF-539 CNS was over 100 µM throughout. The TGI with NCI-H226 lung, in the test with OVCAR-8 ovarian, in the test on NCI-H23 lung, in the test with OVCAR-4 ovarian, in the test with LOX IMVI melanoma and with SNB-75 CNS was over 100 µM throughout. The TGI with U251 CNS, in the test on IGROV1 ovarian and in the test on M14 melanoma was over 100 µM in each case.
In the case of `CC12C(=C(C#N)C(=N)N1c1ccc(Cl)c(Cl)c1)C=C(O)CC2SCCS(=O)(=O)O` (configuration not stated), the TGI in the test with SW-620 colon is over 100 µM; in the test on RXF 393 renal it was 94.7 µM; in the test on HCC-2998 colon it was over 100 µM; in the test with CCRF-CEM leukemia, over 100 µM; with HL-60(TB) leukemia it was over 100 µM; in the test with SF-295 CNS, over 100 µM. Also, the TGI in the test on SF-539 CNS, with NCI-H226 lung, in the test on OVCAR-8 ovarian, with NCI-H23 lung, with OVCAR-4 ovarian and with LOX IMVI melanoma was over 100 µM each time. For the same molecule, the TGI in the test on SNB-75 CNS, in the test on U251 CNS, in the test on SR leukemia and in the test with IGROV1 ovarian was over 100 µM in each case.
Regarding `CCCCCCSCC/C(C)=N\OC`, the TGI with SW-620 colon, with RXF 393 renal, in the test with HCC-2998 colon, in the test on CCRF-CEM leukemia, with OVCAR-5 ovarian and in the test with HL-60(TB) leukemia was over 100 µM throughout. Besides, the TGI in the test on SF-295 CNS, in the test with SF-539 CNS, in the test on NCI-H226 lung, in the test with OVCAR-8 ovarian, in the test with NCI-H23 lung and in the test on OVCAR-4 ovarian was over 100 µM throughout. The TGI in the test with LOX IMVI melanoma, in the test on SNB-75 CNS, in the test on U251 CNS, in the test on IGROV1 ovarian and in the test with M14 melanoma was over 100 µM each time.
On to `[N-]=[N+]=Nc1ccc2c(c1)Sc1ccccc1N2CCCCN1CCN(Cc2ccc(C(=O)c3ccc(CSCC(N)C(=O)O)cc3)cc2)CC1` (configuration not stated), for which the TGI in the test with SW-620 colon is 4.79 µM; in the test with RXF 393 renal, over 100 µM; in the test on HCC-2998 colon it was 59.2 µM; in the test on CCRF-CEM leukemia, over 100 µM; in the test on OVCAR-5 ovarian, over 100 µM; in the test with HL-60(TB) leukemia it was 30.8 µM. Also, the TGI in the test with SF-295 CNS was 44.5 µM; in the test with NCI-H226 lung, 35.6 µM; in the test on NCI-H23 lung, 74.2 µM; in the test on OVCAR-4 ovarian, over 100 µM; with LOX IMVI melanoma, 24.9 µM; in the test with U251 CNS, 26.4 µM. Moreover, in the test on IGROV1 ovarian, the TGI was found to be 30.9 µM.
Consider `N#C/C(=C\c1cc(O)ccc1O)C(N)=O`, for which the TGI was over 100 µM in the test with SW-620 colon; 86.6 µM with RXF 393 renal; over 100 µM in the test on HCC-2998 colon; 53.9 µM with CCRF-CEM leukemia; over 100 µM in the test with OVCAR-5 ovarian; 34.6 µM in the test with HL-60(TB) leukemia. Further, the TGI with SF-295 CNS was over 100 µM; in the test with SF-539 CNS, over 100 µM; in the test on NCI-H226 lung, 95.4 µM; with OVCAR-8 ovarian, over 100 µM; in the test on NCI-H23 lung it was over 100 µM; with OVCAR-4 ovarian it was over 100 µM. Besides, the TGI was 90.8 µM in the test on SNB-75 CNS, over 100 µM in the test on U251 CNS, over 100 µM in the test with IGROV1 ovarian and over 100 µM in the test with M14 melanoma.
